Experimental data taken from ChEMBL document CHEMBL3885881, “DrugMatrix”.

Species: Rattus norvegicus
Test: DrugMatrix - Regimen: Daily Repeat
Assay type: toxicity, organism-based, Sprague-Dawley
Set-up: regimen Daily Repeat, gender Male, age 6-8 weeks
Details: in vivo, sc, route subcutaneous, […]; for ABSOLUTE BASOPHIL / ABSOLUTE EOSINOPHIL / ABSOLUTE LYMPHOCYTE / ABSOLUTE MONOCYTE / ABSOLUTE SEGMENTED NEUTROPHIL / BASOPHIL / EOSINOPHIL / ERYTHROCYTE COUNT / HEMATOCRIT / HEMOGLOBIN / LEUKOCYTE COUNT / LYMPHOCYTE / MEAN CORPUSCULAR HEMOGLOBIN / MEAN CORPUSCULAR HEMOGLOBIN CONCENTRATION / MEAN CORPUSCULAR VOLUME / MONOCYTE / NEUTROPHIL / NUCLEATED RED BLOOD CELLS / PLATELET COUNT: tissue Blood; for ALANINE AMINOTRANSFERASE / ALBUMIN / ALKALINE PHOSPHATASE / ASPARTATE AMINOTRANSFERASE / BLOOD UREA NITROGEN / CARBON DIOXIDE / CHLORIDE / CHOLESTEROL / CREATINE PHOSPHOKINASE / CREATININE / GLUCOSE / LACTATE DEHYDROGENASE / LIPASE / PHOSPHORUS / POTASSIUM / SODIUM / TOTAL BILIRUBIN / TOTAL PROTEIN / URIC ACID: tissue Plasma
[1] = 15 mg/kg, 72 h, dose level Low, time 3 day
[2] = 15 mg/kg, 120 h, dose level Low, time 5 day
[3] = 750 mg/kg, 72 h, dose level High, time 3 day
[4] = 750 mg/kg, 120 h, dose level High, time 5 day

CC=CC(=O)N(CC)c1ccccc1C
ABSOLUTE BASOPHIL [1]: 0 CELLS/uL | ABSOLUTE EOSINOPHIL [1]: 112 CELLS/uL | ABSOLUTE LYMPHOCYTE [1]: 10089.67 CELLS/uL | ABSOLUTE MONOCYTE [1]: 82.33 CELLS/uL | ABSOLUTE SEGMENTED NEUTROPHIL [1]: 1549.33 CELLS/uL | BASOPHIL [1]: 0% | EOSINOPHIL [1]: 1% | ERYTHROCYTE COUNT [1]: 5.39 x10E6/uL | HEMATOCRIT [1]: 34.37% | HEMOGLOBIN [1]: 13.8 G/DL | LEUKOCYTE COUNT [1]: 11.83 x10E3/uL | LYMPHOCYTE [1]: 86.33% | MEAN CORPUSCULAR HEMOGLOBIN [1]: 25.63 pg | MEAN CORPUSCULAR HEMOGLOBIN CONCENTRATION [1]: 40.2 G/DL | MEAN CORPUSCULAR VOLUME [1]: 63.7 fL | MONOCYTE [1]: 0.67% | NEUTROPHIL [1]: 12% | NUCLEATED RED BLOOD CELLS [1]: 0.33 /100WBC | PLATELET COUNT [1]: 1164.67 x10E3/uL | ALANINE AMINOTRANSFERASE [1]: 60.33 u/L | ALBUMIN [1]: 4.3 G/DL | ALKALINE PHOSPHATASE [1]: 309.33 u/L | ASPARTATE AMINOTRANSFERASE [1]: 90 u/L | BLOOD UREA NITROGEN [1]: 14.33 mg/dL | CARBON DIOXIDE [1]: 25.33 mmol/L | CHLORIDE [1]: 102 MEQ/L | CHOLESTEROL [1]: 88 mg/dL | CREATINE PHOSPHOKINASE [1]: 214.67 u/L | CREATININE [1]: 0.15 mg/dL | GLUCOSE [1]: 154.33 mg/dL | LACTATE DEHYDROGENASE [1]: 252.33 u/L | LIPASE [1]: 9 u/L | PHOSPHORUS [1]: 13.47 mg/dL | POTASSIUM [1]: 6.79 MEQ/L | SODIUM [1]: 146.9 MEQ/L | TOTAL BILIRUBIN [1]: 0.2 mg/dL | TOTAL PROTEIN [1]: 6 G/DL | URIC ACID [1]: 1.6 mg/dL | ABSOLUTE BASOPHIL [2]: 0 CELLS/uL | ABSOLUTE EOSINOPHIL [2]: 0 CELLS/uL | ABSOLUTE LYMPHOCYTE [2]: 9506.33 CELLS/uL | ABSOLUTE MONOCYTE [2]: 133 CELLS/uL | ABSOLUTE SEGMENTED NEUTROPHIL [2]: 1294 CELLS/uL | BASOPHIL [2]: 0% | EOSINOPHIL [2]: 0% | ERYTHROCYTE COUNT [2]: 5.45 x10E6/uL | HEMATOCRIT [2]: 35.03% | HEMOGLOBIN [2]: 13.53 G/DL | LEUKOCYTE COUNT [2]: 10.93 x10E3/uL | LYMPHOCYTE [2]: 87% | MEAN CORPUSCULAR HEMOGLOBIN [2]: 24.9 pg | MEAN CORPUSCULAR HEMOGLOBIN CONCENTRATION [2]: 38.67 G/DL | MEAN CORPUSCULAR VOLUME [2]: 64.33 fL | MONOCYTE [2]: 1.33% | NEUTROPHIL [2]: 11.67% | NUCLEATED RED BLOOD CELLS [2]: 2 /100WBC | PLATELET COUNT [2]: 1237.33 x10E3/uL | ALANINE AMINOTRANSFERASE [2]: 56 u/L | ALBUMIN [2]: 4.23 G/DL | ALKALINE PHOSPHATASE [2]: 398.67 u/L | ASPARTATE AMINOTRANSFERASE [2]: 78 u/L | BLOOD UREA NITROGEN [2]: 15 mg/dL | CARBON DIOXIDE [2]: 27 mmol/L | CHLORIDE [2]: 102.33 MEQ/L | CHOLESTEROL [2]: 73.67 mg/dL | CREATINE PHOSPHOKINASE [2]: 195.33 u/L | CREATININE [2]: 0.19 mg/dL | GLUCOSE [2]: 148.33 mg/dL | LACTATE DEHYDROGENASE [2]: 106 u/L | LIPASE [2]: 8.33 u/L | PHOSPHORUS [2]: 12.73 mg/dL | POTASSIUM [2]: 6.57 MEQ/L | SODIUM [2]: 147 MEQ/L | TOTAL BILIRUBIN [2]: 0.2 mg/dL | TOTAL PROTEIN [2]: 6.1 G/DL | URIC ACID [2]: 1.2 mg/dL | ABSOLUTE BASOPHIL [3]: 0 CELLS/uL | ABSOLUTE EOSINOPHIL [3]: 39 CELLS/uL | ABSOLUTE LYMPHOCYTE [3]: 11981 CELLS/uL | ABSOLUTE MONOCYTE [3]: 301 CELLS/uL | ABSOLUTE SEGMENTED NEUTROPHIL [3]: 1579 CELLS/uL | BASOPHIL [3]: 0% | EOSINOPHIL [3]: 0.33% | ERYTHROCYTE COUNT [3]: 5.38 x10E6/uL | HEMATOCRIT [3]: 34.23% | HEMOGLOBIN [3]: 13.3 G/DL | LEUKOCYTE COUNT [3]: 13.9 x10E3/uL | LYMPHOCYTE [3]: 85.67% | MEAN CORPUSCULAR HEMOGLOBIN [3]: 24.7 pg | MEAN CORPUSCULAR HEMOGLOBIN CONCENTRATION [3]: 38.83 G/DL | MEAN CORPUSCULAR VOLUME [3]: 63.7 fL | MONOCYTE [3]: 2.33% | NEUTROPHIL [3]: 11.67% | NUCLEATED RED BLOOD CELLS [3]: 1 /100WBC | PLATELET COUNT [3]: 1269.67 x10E3/uL | ALANINE AMINOTRANSFERASE [3]: 53.33 u/L | ALBUMIN [3]: 3.63 G/DL | ALKALINE PHOSPHATASE [3]: 412 u/L | ASPARTATE AMINOTRANSFERASE [3]: 76.33 u/L | BLOOD UREA NITROGEN [3]: 14.33 mg/dL | CARBON DIOXIDE [3]: 26 mmol/L | CHLORIDE [3]: 101.33 MEQ/L | CHOLESTEROL [3]: 93 mg/dL | CREATINE PHOSPHOKINASE [3]: 193.67 u/L | CREATININE [3]: 0.18 mg/dL | GLUCOSE [3]: 142.67 mg/dL | LACTATE DEHYDROGENASE [3]: 154 u/L | LIPASE [3]: 10.67 u/L | PHOSPHORUS [3]: 12.17 mg/dL | POTASSIUM [3]: 6.36 MEQ/L | SODIUM [3]: 144.1 MEQ/L | TOTAL BILIRUBIN [3]: 0.17 mg/dL | TOTAL PROTEIN [3]: 5.57 G/DL | URIC ACID [3]: 1.23 mg/dL | ABSOLUTE BASOPHIL [4]: 0 CELLS/uL | ABSOLUTE EOSINOPHIL [4]: 100.67 CELLS/uL | ABSOLUTE LYMPHOCYTE [4]: 12538 CELLS/uL | ABSOLUTE MONOCYTE [4]: 97.33 CELLS/uL | ABSOLUTE SEGMENTED NEUTROPHIL [4]: 1764 CELLS/uL | BASOPHIL [4]: 0% | EOSINOPHIL [4]: 0.67% | ERYTHROCYTE COUNT [4]: 4.84 x10E6/uL | HEMATOCRIT [4]: 29.03% | HEMOGLOBIN [4]: 11.63 G/DL | LEUKOCYTE COUNT [4]: 14.5 x10E3/uL | LYMPHOCYTE [4]: 86.67% | MEAN CORPUSCULAR HEMOGLOBIN [4]: 24.07 pg | MEAN CORPUSCULAR HEMOGLOBIN CONCENTRATION [4]: 40.13 G/DL | MEAN CORPUSCULAR VOLUME [4]: 60.03 fL | MONOCYTE [4]: 0.67% | NEUTROPHIL [4]: 12% | NUCLEATED RED BLOOD CELLS [4]: 0 /100WBC | PLATELET COUNT [4]: 1313.67 x10E3/uL | ALANINE AMINOTRANSFERASE [4]: 73.67 u/L | ALBUMIN [4]: 3.63 G/DL | ALKALINE PHOSPHATASE [4]: 318 u/L | ASPARTATE AMINOTRANSFERASE [4]: 113.67 u/L | BLOOD UREA NITROGEN [4]: 18 mg/dL | CARBON DIOXIDE [4]: 29.33 mmol/L | CHLORIDE [4]: 98.67 MEQ/L | CHOLESTEROL [4]: 97.33 mg/dL | CREATINE PHOSPHOKINASE [4]: 403.33 u/L | CREATININE [4]: 0.19 mg/dL | GLUCOSE [4]: 144 mg/dL | LACTATE DEHYDROGENASE [4]: 612.33 u/L | LIPASE [4]: 10.67 u/L | PHOSPHORUS [4]: 13.33 mg/dL | POTASSIUM [4]: 5 MEQ/L | SODIUM [4]: 136.53 MEQ/L | TOTAL BILIRUBIN [4]: 0.1 mg/dL | TOTAL PROTEIN [4]: 5.57 G/DL | URIC ACID [4]: 1.7 mg/dL
